Test results published in patent US12590099B2, “Inhibitors of histone deacetylase useful for the treatment or prevention of HIV infection” (Merck Sharp & Dohme LLC, priority 2018, dated 2026).
Where two headings read alike, the source gives them in different places.

Columns and labels:
Recombinant human HDAC1 = target: T1, Recombinant human HDAC1 (Homo sapiens, UniProt Q13547); assay: Human HDAC enzyme inhibitor Fluor-de-Lys assay, HDAC1; assay type: biochemical
T1 construct: FLAG (C); made in house
Protocol: (§1) Human HDAC Enzyme Inhibitor Fluor-De-Lys Assay
(§2) Recombinant human HDAC8 (BML-SE145-0100) and HDAC10 (BML-SE559-0050) enzymes, HDAC substrates BML-KI104 and BML-KI178, and HDAC developer solutions BML-KI105 and BML-KI176 were purchased from Enzo Life Sciences. […] HDAC inhibitor suberoylanilide hydroxamic acid (SAHA) was obtained from Indofine and trichostatin A (TSA) was obtained from Sigma-Aldrich.
(§3) Recombinant human HDAC1, HDAC2, and HDAC3/SMRT heterodimer were prepared by Merck Research Laboratories. […] The eluted protein was then passed over an anti-HDAC1 immunoaffinity column to remove any complexes containing HDAC1. […]
(§4) The histone deacetylase activities of HDAC1, HDAC2, HDAC3, HDAC6, and HDAC8 were measured in modified FLUOR DE LYS assays in 384-well format. In this assay, HDAC enzymes are initially incubated with an ε-acetyl (or -trifluoroacetyl)-L-lysine-containing substrate with a C-terminal amide having aminomethylcoumarin as the amine component. HDACs cleave the ε-acetyl group, rendering the resulting product susceptible to AMC cleavage by trypsin. The released AMC is then detected by its fluorescence.
(§5) The HDAC3/SMRT assay employed buffer B, consisting of 20 mM HEPES, pH 8.0, 1 mM MgCl2, 50 mM NaCl, 2.7 mM KCl, 0.05% BSA, 0.005% Tween 20, and 10 μM IP4. […] The HDAC8 assay employed buffer D, consisting of 20 mM HEPES, pH 8.0, 1 mM MgCl2, 100 mM NaCl, 20 mM KCl, 0.10% n-octyl-β-D-glucoside (Anatrace) and 0.05% BSA. All steps were performed at room temperature (23° C.). The assay was performed by pre-incubating serial dilutions of test compounds with the target HDAC prior to initiation with substrate. Each compound was titrated in a 10-point dose response, using a 1:3 fold dilution scheme, with 0.15 ul of solution added by ECH0555 to the plate, followed by the addition of 20 μl of the appropriate HDAC isoform diluted in appropriate assay buffer. […] Final conditions used for each assay were: 1. HDAC 1, 0.3 nM total enzyme, 20 μM substrate BML-KI104; 2. […] HDAC 3/SMRT, 0.3 nM total enzyme, 20 μM substrate BML-KI104; 4. […] The reactions were stopped and developed by addition of 30 ul of HDAC developer solution containing a saturating level of HDAC inhibitor as follows: 1.

KARN cells (Jurkat 2C4) = assay: cells; assay type: cell-based
Outline: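 Jurkat 2C4 (KARN) cells dosed with test compounds up to 40 μM final, 0.4% DMSO, overnight at 5% CO2; luciferase read by Steady-Glo luminescence after 10 min at room temperature. DMSO set as 0% and 2 μM SAHA as 100% induction; 4-parameter fit of percent activation.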

Recombinant human HDAC2 = target: T2, Recombinant human HDAC2 (Homo sapiens, UniProt Q92769); assay: Human HDAC enzyme inhibitor Fluor-de-Lys assay, HDAC2; assay type: biochemical
T2 construct: Full length human HDAC2-FLAG was expressed in baculovirus infected Sf9 cells; FLAG (C); made in house; host or cells: Sf9 (baculovirus)
Protocol: as §1, §2, §3, §4, §5

[1] = target: T3, Recombinant human HDAC3/SMRT heterodimer (Homo sapiens, UniProt O15379); assay: Human HDAC enzyme inhibitor Fluor-de-Lys assay, HDAC3/SMRT; assay type: biochemical
T3 construct: FLAG (C); made in house

[2] = Homo sapiens, Jurkat, read-out: Karn EC50 (nM) 0.1% NHS, 0.1% normal human serum
[3] = Homo sapiens, Jurkat, read-out: Karn EC50 (nM) 5% NHS, 5% normal human serum

T2 sequence (Q92769 whole entry): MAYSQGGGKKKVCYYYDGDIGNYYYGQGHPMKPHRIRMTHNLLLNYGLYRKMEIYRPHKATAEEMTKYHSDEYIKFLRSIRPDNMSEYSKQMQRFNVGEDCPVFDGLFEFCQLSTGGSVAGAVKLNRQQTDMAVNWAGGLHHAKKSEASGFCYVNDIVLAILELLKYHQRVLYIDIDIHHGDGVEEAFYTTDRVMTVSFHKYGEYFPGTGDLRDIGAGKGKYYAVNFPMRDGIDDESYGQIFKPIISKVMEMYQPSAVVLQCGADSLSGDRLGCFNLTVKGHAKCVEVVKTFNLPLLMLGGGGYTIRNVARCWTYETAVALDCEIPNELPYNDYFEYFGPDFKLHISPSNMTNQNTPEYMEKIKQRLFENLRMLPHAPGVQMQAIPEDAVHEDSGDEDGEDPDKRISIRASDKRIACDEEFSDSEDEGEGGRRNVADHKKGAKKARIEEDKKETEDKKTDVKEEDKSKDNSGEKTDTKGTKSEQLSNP
T1 sequence (Q13547 whole entry): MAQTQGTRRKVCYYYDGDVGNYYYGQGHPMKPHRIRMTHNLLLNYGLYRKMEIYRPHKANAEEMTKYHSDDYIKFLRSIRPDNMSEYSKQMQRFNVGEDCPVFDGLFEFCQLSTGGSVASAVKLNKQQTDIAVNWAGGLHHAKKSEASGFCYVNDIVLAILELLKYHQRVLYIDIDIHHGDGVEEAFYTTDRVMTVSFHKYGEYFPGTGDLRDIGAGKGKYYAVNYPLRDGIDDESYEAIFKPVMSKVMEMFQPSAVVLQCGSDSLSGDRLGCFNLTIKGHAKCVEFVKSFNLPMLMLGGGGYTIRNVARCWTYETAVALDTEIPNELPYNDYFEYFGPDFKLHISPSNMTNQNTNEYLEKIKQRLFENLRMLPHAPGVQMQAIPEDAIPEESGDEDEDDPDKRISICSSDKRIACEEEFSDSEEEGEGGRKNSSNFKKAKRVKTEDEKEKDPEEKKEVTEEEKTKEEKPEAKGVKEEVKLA
T3 sequence (O15379 whole entry): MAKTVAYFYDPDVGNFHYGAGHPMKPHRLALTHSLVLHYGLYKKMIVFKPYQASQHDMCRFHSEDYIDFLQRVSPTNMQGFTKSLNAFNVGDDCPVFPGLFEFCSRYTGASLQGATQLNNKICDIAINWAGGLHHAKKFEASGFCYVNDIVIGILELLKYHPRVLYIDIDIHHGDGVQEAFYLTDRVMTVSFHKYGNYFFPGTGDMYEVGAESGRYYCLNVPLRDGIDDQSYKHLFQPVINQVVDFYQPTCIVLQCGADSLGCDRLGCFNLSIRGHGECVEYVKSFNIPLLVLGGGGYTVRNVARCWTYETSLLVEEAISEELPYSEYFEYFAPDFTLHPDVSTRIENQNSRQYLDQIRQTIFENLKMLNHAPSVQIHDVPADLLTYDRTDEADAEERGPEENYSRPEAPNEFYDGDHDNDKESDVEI
T3 sequence (Q9Y618 1-899 partner limits assumed): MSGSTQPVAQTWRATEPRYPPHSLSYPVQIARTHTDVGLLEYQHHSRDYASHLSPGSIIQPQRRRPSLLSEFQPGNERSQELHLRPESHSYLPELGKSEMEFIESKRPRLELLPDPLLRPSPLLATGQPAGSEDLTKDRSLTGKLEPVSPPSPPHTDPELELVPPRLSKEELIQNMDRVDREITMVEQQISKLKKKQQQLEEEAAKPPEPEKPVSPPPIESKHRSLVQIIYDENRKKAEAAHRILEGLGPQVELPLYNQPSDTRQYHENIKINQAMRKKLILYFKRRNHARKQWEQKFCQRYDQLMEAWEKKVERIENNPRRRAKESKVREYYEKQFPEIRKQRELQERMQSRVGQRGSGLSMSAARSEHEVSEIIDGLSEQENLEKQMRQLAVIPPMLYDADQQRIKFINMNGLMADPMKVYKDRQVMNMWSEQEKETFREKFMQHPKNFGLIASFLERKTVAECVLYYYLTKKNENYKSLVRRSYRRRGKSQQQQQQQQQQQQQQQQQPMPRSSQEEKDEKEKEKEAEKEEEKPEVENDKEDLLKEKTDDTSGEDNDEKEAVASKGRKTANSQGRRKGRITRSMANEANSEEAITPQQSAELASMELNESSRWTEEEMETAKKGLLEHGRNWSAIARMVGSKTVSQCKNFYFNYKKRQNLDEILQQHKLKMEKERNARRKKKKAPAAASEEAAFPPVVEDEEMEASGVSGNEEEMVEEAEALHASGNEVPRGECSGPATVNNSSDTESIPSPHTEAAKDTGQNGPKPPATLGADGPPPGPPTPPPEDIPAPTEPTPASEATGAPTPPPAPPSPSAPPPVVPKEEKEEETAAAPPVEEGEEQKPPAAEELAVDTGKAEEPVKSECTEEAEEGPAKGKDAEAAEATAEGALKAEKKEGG

SMILES | IC50 (Recombinant human HDAC1) | EC50 (KARN cells (Jurkat 2C4); [2]) | EC50 (KARN cells (Jurkat 2C4); [3]) | IC50 (Recombinant human HDAC2) | IC50 [1] | EC50 (KARN cells (Jurkat 2C4); read-out: Karn EC50 (nM) 0.1% NHS, 0.1% normal human serum) | EC50 (KARN cells (Jurkat 2C4); read-out: Karn EC50 (nM) 5% NHS, 5% normal human serum)
CCC(=O)CCCCC[C@H](NC(=O)C1=NOC2(CCN(CC3CC3)CC2)C1)c1ncc(-c2cc3ccc(C)nc3cc2OC)[nH]1 [Compound 219] | 0.1 nM | 78 nM | 101 nM | 1.8 nM | 0.34 nM |  | 
CCC(=O)CCCCC[C@H](NC(=O)[C@H]1CC[C@]2(CC1)OC(=O)c1ncccc12)c1ncc(-c2ccc3nc(C4CC4)ccc3c2)o1 [Compound 122] | 56.7 nM | 1130 nM | 2840 nM | 157 nM | 20.5 nM |  | 
CCC(=O)CCCCC[C@H](NC(=O)C1=NOC2(CCN(C)CC2)C1)c1ncc(-c2ccc3nn(C)cc3c2)[nH]1 [Compound 154] | 6.03 nM | 518 nM | 476 nM | 19.5 nM | 2.76 nM |  | 
CCC(=O)CCCCC[C@H](NC(=O)C1CC12CC1CCC(C2)N1C)c1ncc(-c2ccc3ncccc3c2)[nH]1 (single isomer, unassigned) [Compound 166] | 0.37 nM | 469 nM | 591 nM | 2.2 nM | 0.32 nM |  | 
CCC(=O)CCCCC[C@H](NC(=O)C1=NOC2(CCN(C)CC2)C1)c1ncc(-c2cc3ccccc3nc2OC)[nH]1 [Compound 105] | 0.92 nM | 126 nM | 942 nM | 5.3 nM |  |  | 
CCC(=O)CCCCC[C@H](N)c1ncc(-c2cc3ccc(C)nc3cc2OC)[nH]1 [Compound 209, (S)-9-amino-9-(5-(7-methoxy-2-methylquinolin-6-yl)-1H-imidazol-2-yl)nonan-3-one] | 52.9 nM | 1440 nM | 4950 nM | 151 nM | 21.6 nM |  | 
CCC(=O)CCCCC[C@H](NC(=O)C1CC2(C1)CN(C)C2)c1ncc(-c2ccc3nn(C)cc3c2)[nH]1 [Compound 147] | 2.29 nM | 3580 nM | 2850 nM | 10.3 nM | < 1.5 nM |  | 
CC(O)C(=O)CCCCC[C@H](NC(=O)[C@H]1CC12CCN(C)CC2)c1nc(-c2ccc(F)cc2)c[nH]1 (stereo partly drawn) [Compound 134, (1S)—N-{(1S)-1-[4-(4-fluorophenyl)-1H-imidazol-2-yl]-8-hydroxy-7-oxononyl}-6-methyl-6-azaspiro[2.5]octane-1-carboxamide] | 10.5 nM | 2410 nM | 2190 nM | 51.6 nM | 4 nM |  | 
CCC(=O)CCCCC[C@H](NC(=O)[C@H]1CC12CCN(C)CC2)c1ncc(-c2ccc3nc(N(C)C)ccc3c2)[nH]1 [Compound 66, (1S)—N-[(1S)-1-{5-[2-(dimethylamino)quinolin-6-yl]-1H-imidazol-2-yl}-7-oxononyl]-6-methyl-6-azaspiro[2.5]octane-1-carboxamide] | 147 nM | 27 nM | 14 nM | > 900 nM | 167 nM |  | 
CCC(=O)CCCCC[C@H](NC(=O)C1=NOC2(CCN(C)CC2)C1)c1ncc(-c2cc3ccc(=O)n(C)c3cc2OC)o1 [Compound 193] | 3.01 nM | 284 nM | 297 nM | 10.9 nM | 1.81 nM |  | 
C=CCN1CCC2(CC1)C[C@@H]2C(=O)N[C@@H](CCCCCC(=O)CC)c1ncc(-c2cccc3c2C2CCC3N2CC=C)[nH]1 (stereo partly drawn) [Compound 180, (1S)—N-{(1S)-7-oxo-1-[5-(9-prop-2-en-1-yl-1,2,3,4-tetrahydro-1,4-epiminonaphthalen-5-yl)-1H-imidazol-2-yl]nonyl}-6-prop-2-en-1-yl-6-azaspiro[2.5]octane-1-carboxamide] | 5.4 nM | 371 nM | 666 nM | 29.6 nM | 2.55 nM |  | 
CCC(=O)CCCCC[C@H](NC(=O)[C@H]1CC12CCN(C)CC2)c1ncc(-c2cc3ccccc3nc2OC)o1 [Compound 125] | < 1.5 nM | 154 nM | 256 nM | 5.6 nM |  |  | 
CCC(=O)CCCCC[C@H](NC(=O)[C@H]1CC12CCN(C)CC2)c1nnc(-c2cc3ccc(C)nc3cc2OC)o1 [Compound 191] | 2.16 nM | 366 nM | 343 nM | 5.3 nM | 1.68 nM |  | 
CCC(=O)CCCCC[C@H](NC(=O)[C@H]1CC12CCN(CC1CC1)CC2)c1ncc(-c2cc3ccc(=O)n(C)c3cc2OC)o1 [Compound 199] | 0.35 nM | 62 nM | 83 nM | 1.3 nM |  |  | 
CCN1CCC2(CC1)C[C@@H]2C(=O)N[C@@H](CCCCCC(=O)CC1CC1)c1ncc(-c2cc3ccc(C)nc3cc2OC)o1 [Compound 167] | 0.97 nM | 122 nM | 253 nM | 8 nM | 1.12 nM |  | 
CCC(=O)CCCCC[C@H](NC(=O)C1CN(C)C1)c1ncc(-c2ccc3c(c2)C2CCC3C2)[nH]1 (stereo partly drawn) [Compound 73, 1-methyl-N-{(1S)-7-oxo-1-[5-(1,2,3,4-tetrahydro-1,4-methanonaphthalen-6-yl)-1H-imidazol-2-yl]nonyl}azetidine-3-carboxamide] | 31 nM | 740 nM | 1450 nM | 138 nM | 9.57 nM |  | 
CCC(=O)CCCCC[C@H](NC(=O)[C@H]1CC12CCN(C(C)C)CC2)c1ncc(-c2ccc3nc(C4CC4)ccc3c2)o1 [Compound 116] | 4.37 nM | 630 nM | 617 nM | 15.7 nM | 3.88 nM |  | 
CCC(=O)CCCCC[C@H](NC(=O)C1=NOC2(CCN(C)CC2)C1)c1ncc(-c2cc3ccncc3nc2OC)o1 [Compound 216] | 7.11 nM | 194 nM | 278 nM | 34.8 nM | 13.5 nM |  | 
CCC(=O)CCCCC[C@H](NC(=O)[C@H]1CC12CCN(C)CC2)c1ncc(-c2cc3ccccc3nc2OC)o1 [Compound 77] | 1.53 nM |  |  | 4.8 nM |  | 194 nM | 311 nM
CCC(=O)CCCCC[C@H](NC(=O)[C@H]1CC12CCN(C)CC2)c1ncc(-c2cnc3cccnc3c2)[nH]1 [Compound 67] | 19.6 nM | 6480 nM | 6350 nM | 101 nM |  |  | 
